Data as given in patent US11384071B2, “Inhibitors of mechanotransduction to treat pain and modulate touch perception” (Max-Delbrück-Centrum für Molekulare Medizin in der …, priority 2016, dated 2022).

How the values were obtained:
[1] = molecular target: T1, human STOML3 (Homo sapiens, UniProt Q8TAV4); assay: BiFC assay of human STOML3 self-association; assay type: cell-based
T1 construct: expressed in transfected cells; host or cells: HEK293 (general statement on the BiFC assay)
From the text: (§1) In mammals STOML3 belongs to a family of five structurally conserved membrane proteins, including stomatin, STOML1, STOML2, and podocin^10,12-16, all of which self-associate via their stomatin-domain (FIG. 8a)^10. Self-association of stomatin-domain proteins can be monitored in HEK293 cells using Bimolecular Fluorescence Complementation (BiFC) whereby N- and C-terminal halves of the YFP molecule are tagged to the prey and bait protein STOML3^2,17 (FIG. 1a). Irreversible association of the YFP fragments produces fluorescence that increases linearly over time (FIG. 1b).

[2] = molecular target: T2, stomatin (Mus musculus, UniProt P54116); assay: BiFC assay of stomatin self-association; assay type: cell-based
T2 construct: expressed in transfected cells; host or cells: HEK293 (general statement on the BiFC assay)
Description: (§2) FIG. 8: Effects of STOML3 modulating molecules on other Stomatin-domain proteins. (a) BiFC signal development observed when cells were transfected with Stomatin-VC/-VN, STOML1-VC/-VN, STOML2-VC/-VN, STOML3-VC/-VN or Podocin-VC/-VN expression constructs respectively. […] (b) OB-1 was tested at two different concentrations (2 μm and 20 μm) using the BiFC assay where wild type STOML3 was used as both bait and prey.
as §1

[3] = molecular target: T3, STOML2 (Mus musculus, UniProt Q99JB2); assay: BiFC assay of STOML2 self-association; assay type: cell-based
T3 construct: expressed in transfected cells; host or cells: HEK293 (general statement on the BiFC assay)
Description: as §2, §1

[4] = molecular target: T4, Podocin (Mus musculus, UniProt Q91X05); assay: BiFC assay of podocin self-association; assay type: cell-based
T4 construct: expressed in transfected cells; host or cells: HEK293 (general statement on the BiFC assay)
Description: as §2, §1

[5] = tested on: RA-currents in mechanoreceptor sensory neurons; assay: Cell soma indentation, RA-mechanosensitive currents in sensory neurons; assay type: cell-based, mouse
Description: Whole-cell, patch-clamp recordings were conducted as previously described 5-7, using patch pipettes with a tip resistance of 3-6 MΩ, filled with a solution of: 110 mM KCl, 10 mM NaCl, 1 mM MgCl2, 1 mM EGTA and 10 mM HEPES, adjusted to pH 7.3 with KOH. (For experiments on DRG neurons 10 mM QX-314 was added to the pipette to block voltage-gated sodium channels 8 Extracellular solutions contained 140 mM NaCl, 4 mM KCl, 2 mM CaCl2, 1 mM MgCl2, 4 mM glucose, 10 mM HEPES, adjusted to pH 7.4 with NaOH. A Zeiss 200 inverted microscope and an EPC-10 amplifier in combination with Patchmaster software was used, data was analyzed using Fitmaster software (HEKA Electronik GmbH, Germany). Pipette and membrane capacitance were compensated using the auto function of Patchmaster, series resistance was compensated by at least 60% to minimize voltage errors. Mechanical stimuli were applied using a polished glass probe driven by the MM3A micromanipulator (Kleindiek Nanotechnik, Germany). Mechanical stimuli were applied by either; indenting the cell soma or by culturing cells on elastomeric pillar arrays and applying the stimulus to the cell-substrate interface by deflecting an individual pilus.
We evaluated the effects of OB-1 and OB-2 on mechanosensitive currents in acutely cultured mouse sensory neurons. […]

[6] = tested on: head-restrained mice; assay: Tactile perception task for head-restrained mice; assay type: in vivo, mouse
From the text: Male C57B16/J mice were anaesthetized and a lightweight metal headholder was implanted to the skull using glue (Loctite 401, Henkel) and dental cement (Paladur®, Heraeus). Mice were habituated to the head-restraint and the behavioral setup over 1-2 days. Mouse licking and forepaw behavior was monitored with three custom-made capacitance sensors: a licking sensor, a rest sensor and a target sensor that provided an online monitor of paw or tongue contact. The rest sensor was a ball (diameter: 6 mm) mounted on a glass rod of 30 mm length, glued to a piezoelectric bender (PICMA® Multilayer Piezo Bender Actuator, Physik Instrumente). The piezo generated a 30 ms cosine tactile pulse via a piezo amplifier system (Sigmann Elektronik). A urethane foam buffer (Poron®, Rogers Cooperation) was placed between the piezo and the supporting platform to reduce ringing oscillations after the stimulus pulse. The stimulus amplitude was calibrated with a high-speed (300 Hz) camera (Dalsa Genie HM640). […] Mice were water restricted and given approximately 4×0.6 μl water rewards on condition of touching the target sensor within a defined latency from stimulus onset and licking the water dispenser. The target sensor moved to the start position at the start of a new trial and away from the mouse at the end of the trial. Inter-trial interval was randomized between 7 and 13 s. […]

[7] = tested on: mice with chronic constriction injury; assay: Chronic constriction injury (CCI) model, paw withdrawal thresholds to von Frey filaments; assay type: in vivo, mouse
From the text: In deeply anaesthetized mice using isoflurane delivered in 100% 02 (Univentor 410 Anaesthesia unit; Univentor, Malta), four loose silk (5/0; Catgut GmbH Markneukirchen) ligatures were placed around the sciatic nerve at the level of the right mid-thigh as described previously (Wetzel et al., 2007).
(§3) Mice were allowed to habituate to the testing apparatus (acrylic chambers 10×10 cm in size, suspended above a wired mesh grid) one hour prior to behavioral testing. Only once the subject was at rest and not moving, calibrated von-Frey hair monofilaments (Aesthesio® set of 20 monofilaments, Ugo Basil) were applied to the plantar surface of the hind paw in order to deliver target forces from 0.008 grams to 4 grams increasing in an approximately logarithmic scale. A single stimulus indicated by a slight bending of the filament lasted for two seconds unless the mouse withdrew its paw. In order to measure mechanosensitivity the up-and-down method described by Chaplan^13 was adapted as follows: Testing began with a filament delivering a target force of 0.4 g, but filaments were applied three times. A positive response was noted if the subject withdrew the paw to all three filament applications, so that the successively smaller filament was presented next. […] Paw withdrawal thresholds were calculated as median of 23 to 30 determined turning points of the particular force stimuli applied to the subject.
Drug injections of OB-1 or DMSO alone were dissolved in Ringer's solution (in mM: 135 NaCl, 5 KCl, 5 HEPES, 1.8 CaCl2), 1 MgCl2) to make the OB-1 and vehicle solution. Injections were made 3 hours prior to behavioral testing, approximately 20 μl solution, 250 pmol per paw, was injected into the palm with a Hamilton syringe, gauge 33. During the injection procedure, the mouse was anaesthetized with isoflurane (1.5 to 2.5% in 02). The injection procedure lasted around 3 minutes after which the mouse was moved to the home cage for recovery before behavioral testing.
We next interrogated whether local application of OB-1 can ameliorate tactile-evoked pain behavior in neuropathic models. […] We decided to test this idea more directly by testing the effects of local OB-1 on the mechanical sensitivity of Stoml3^−/− mice with CCI. […] Off-target effects are an issue for any biologically active small molecule. We therefore tested the effects of 20 μM OB-1 in a commercially available in vitro pharmacology panel (www.cerep.fr) consisting of 79 receptors and ion channels.

[8] = tested on: naive mice; assay: Paw withdrawal threshold and radiant heat latency in naive mice; assay type: in vivo, mouse; conditions: intraplantar 250-500 pmol per paw
From the text: as §3
Drug injections of OB-1 or DMSO alone were dissolved in Ringer's solution (in mM: 135 NaCl, 5 KCl, 5 HEPES, 1.8 CaCl2), 1 MgCl2) to make the OB-1 and vehicle solution. […]

[9] = tested on: Spared tibial nerve injury (SNI) mice; assay: Spared nerve injury (SNI) model, paw withdrawal thresholds; assay type: in vivo, mouse; conditions: administration to the plantar skin
From the text: as §3

[10] = tested on: NGF-injected mice; assay: NGF-induced hyperalgesia; assay type: in vivo, mouse
From the text: as §3

[11] = tested on: diabetic mice (STZ); assay: Streptozotocin (STZ) painful diabetic neuropathy model, von Frey; assay type: in vivo, mouse
Description: Eight week old C57Bl/6 mice were used for diabetes experiments. Diabetes was induced. Briefly, 6 consecutive intraperitoneal injections of streptozotocin (STZ, Sigma-Aldrich, #S0130) were given with 24 h intervals at 60 mg/Kg body weight in citrate buffer (0.05M, pH 4.5) to induce diabetes. Blood glucose was maintained between 400 and 500 mg/dL throughout the experimental period. Mechanical sensitivity was measured in regular intervals and only those mice showing increased sensitivity to von Frey filaments as compared with basal sensitivity were selected for testing the effects of OB-1.
Von Frey filaments of increasing strength (0.07, 0.16, 0.4, 0.6, 1.0 and 1.4 g) are applied 5 times with at least 1 min interval to intraplantar surface of hind paws to test the mechanical sensitivity. […] Frequency of positive responses was recorded out of 5 stimuli and percent of withdrawal frequency was calculated. Threshold was calculated as the von Frey filament strength required to elicit 60% withdrawal frequency. Vehicle or OB-1 (approximately 20 μl solution, 250 pmol per paw) was injected subcutaneously into intraplantar surface of diabetic mice under mild isoflurane anesthesia and mechanical sensitivity was measured from both injected (ipsilateral) and non-injected (contralateral) paws at 4 and 24 h post-injection.

[12] = molecular target: T5, hsSTOML3 (Homo sapiens, UniProt Q8TAV4); assay: TriGFP assay of hsSTOML3 self-association in N2a cells, flow cytometry; assay type: cell-based; conditions: 20 μM, 16 h, vs vehicle
T5 construct: expressed in transfected cells; host or cells: N2a
T5 sequence (Q8TAV4 whole entry): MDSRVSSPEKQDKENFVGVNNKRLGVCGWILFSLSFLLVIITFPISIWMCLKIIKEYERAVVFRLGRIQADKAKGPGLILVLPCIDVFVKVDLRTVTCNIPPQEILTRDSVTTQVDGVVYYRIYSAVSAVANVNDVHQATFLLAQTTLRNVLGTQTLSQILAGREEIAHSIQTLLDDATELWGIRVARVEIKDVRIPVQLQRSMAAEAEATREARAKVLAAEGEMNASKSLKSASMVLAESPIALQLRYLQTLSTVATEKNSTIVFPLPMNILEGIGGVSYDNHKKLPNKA
Description: (a) The assay is based on the tripartite association between the two twenty amino-acids long GFP tags GFP10 and GFP11, which were fused to hsSTOML3 protein partners, and the complementary GFP1-9 detector (Reference 50). When hsSTOML3 proteins interact, GFP10 and GFP11 self-associate with GFP1-9 and reconstitute functional GFP.
N2a cells were cultured in 6-well plates to approximately 70% confluence; cells were co-transfected with plasmids encoding GFP1-9, STOML3-GFP10 and STOML3-GFP11 using PEI, as per manufacturer's instructions. The transfection reaction was allowed to proceed for 8 h before compound incubation at 20 μM final concentration. Twenty-four hours after transfection cells were collected, fixed with 4% PFA for 10 minutes and resuspended in PBS. Cell suspensions were used for flow cytometry analysis.
In this assay, N2a cells were co-transfected with plasmids encoding GFP1-9, STOML3-GFP10 and STOML3-GFP11 and incubated with either vehicle (0.4% DMSO) or OB-1 derivatives at 20 μM final concentration for 16 h. Twenty-four hours after transfection cells were collected, fixed with 4% PFA and resuspended in PBS.

T2 sequence (P54116 whole entry): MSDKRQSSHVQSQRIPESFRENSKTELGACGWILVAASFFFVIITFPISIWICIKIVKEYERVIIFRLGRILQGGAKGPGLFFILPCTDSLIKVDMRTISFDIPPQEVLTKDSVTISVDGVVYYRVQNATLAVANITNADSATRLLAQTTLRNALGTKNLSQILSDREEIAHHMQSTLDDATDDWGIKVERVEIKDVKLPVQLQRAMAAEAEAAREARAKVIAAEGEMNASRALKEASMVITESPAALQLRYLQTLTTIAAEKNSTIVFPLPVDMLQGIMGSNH
T4 sequence (Q91X05 whole entry): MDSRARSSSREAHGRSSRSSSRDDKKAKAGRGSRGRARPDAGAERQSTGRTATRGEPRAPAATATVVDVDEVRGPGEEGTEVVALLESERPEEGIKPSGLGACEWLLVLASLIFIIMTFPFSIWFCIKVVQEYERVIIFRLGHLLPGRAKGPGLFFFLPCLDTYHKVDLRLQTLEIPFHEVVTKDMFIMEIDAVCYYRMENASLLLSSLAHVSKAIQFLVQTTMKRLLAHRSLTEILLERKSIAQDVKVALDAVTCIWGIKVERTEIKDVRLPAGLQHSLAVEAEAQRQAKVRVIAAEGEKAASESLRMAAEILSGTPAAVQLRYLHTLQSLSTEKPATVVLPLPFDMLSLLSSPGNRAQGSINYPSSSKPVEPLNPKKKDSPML
T1 sequence (Q8TAV4 whole entry): as the sequence (Q8TAV4 whole entry) above
T3 sequence (Q99JB2 29-353): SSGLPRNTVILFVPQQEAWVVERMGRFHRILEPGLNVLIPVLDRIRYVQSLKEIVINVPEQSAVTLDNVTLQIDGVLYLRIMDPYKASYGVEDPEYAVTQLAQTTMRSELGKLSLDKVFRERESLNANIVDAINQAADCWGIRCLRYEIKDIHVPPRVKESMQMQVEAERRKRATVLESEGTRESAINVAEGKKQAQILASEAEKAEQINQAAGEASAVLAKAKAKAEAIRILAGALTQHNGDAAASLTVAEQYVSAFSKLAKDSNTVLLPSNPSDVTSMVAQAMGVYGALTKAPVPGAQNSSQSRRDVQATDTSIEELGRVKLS

self-association of the human STOML3 protein (BiFC) [1]: inhibited | self-association of stomatin (BiFC) [2]: effective inhibitor | self-association of STOML2 (BiFC) [3]: effective inhibitor | oligomerization of Podocin (BiFC) [4]: does not affect | hsSTOML3 self-association (GFP signal intensity) [12]: strongly reduce
SMILES: CCOC(=O)c1c(-c2ccccc2)oc2ccc(Oc3c([N+](=O)[O-])ncn3C)cc12 [OB-1, Ethyl 5-((1-methyl-4-nitro-1H-imidazol-5-yl)oxy)-2-phenylbenzofuran-3-carboxylate]
inactivation time constant (τ2) of mechanically-gated currents [5]: slowed | neurons displaying no mechanosensitive current ([5]; 12/21 neurons, control 21%): ~60% | psychometric curve of tactile stimulus detection ([6]; 11 nmol per paw into forepaw, stimulus strengths 125-275 μm): shifted to the right | time for detection rates of threshold stimuli to return to pre-treatment levels ([6]; after drug treatment): 1 to 4 days | effect of a single dose after 24 h ([7]; CCI): absent | time of maximal effect after a single local injection ([7]; CCI): 3 h | established hypersensitivity ([7]; CCI, applied to the contralateral paw): no reversal | half-maximal effective dose (ED50) ([7]; CCI, paw withdrawal threshold, local injection): 4.42 µM | half-maximal effective dose (ED50) ([7]; CCI, per paw): approximately 20 pmol | paw withdrawal threshold ([7]; Stoml3−/− mice with CCI, local treatment of neuropathic paws): no change | mechanical hypersensitivity ([7]; female mice with CCI, similar extent to males): reversed | tactile-evoked pain or allodynia ([7]; wild type mice, CCI 6-21 days after induction, intraplantar ipsilateral): complete reversal | paw withdrawal thresholds to mechanical stimuli [8]: no change | withdrawal latency for radiant heat stimuli [8]: no change | allodynia [9]: no reversal | mechanical hypersensitivity after NGF ([10]; local intraplantar): not reversed | NGF-induced thermal hyperalgesia ([10]; local treatment, systemic NGF-injection): not alleviate | mechanical hypersensitivity ([11]; 250 pmol per paw, 4 h after treatment): substantially reversed | mechanical hypersensitivity, mean 60% withdrawal threshold ([11]; 24 h after a single treatment): returned to pre-drug treatment levels
